Measurements published in patent US8058306B2, “Phenyl pyrrole aminoguanidine derivatives” (Action Pharma A/S, priority 2006, dated 2011).
Several values for one entry are separate records, joined by “and”; a condition that tells them apart may be missing. Equal values may be shown once. Entries after “also recorded” stand apart in the source; their conditions may differ. Read-outs that look alike come from different tables or passages of the source.

Assay: Plasma kinetics in rat following intravenous and oral administration;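 for AUC0-∞: parameter is AUC from zero to infinity in ng·h/mL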
Assay type: in vivo, Sprague Dawley rats
Description: This study determined the intravenous pharmacokinetics and oral bioavailability of compound 1 of the invention (see FIG. 1A, structure no. 1), compound 2 of the invention (see FIG. 1D, structure no. 19) and compound 3 of the invention (see FIG. 1I, structure no. 53) following administration to Sprague Dawley rats at a dose level of 10 mg/kg.
Six groups of 3 male rats received either a single intravenous or single oral administration of compound 1, 2 or 3 of the invention at a dose level of 10 mg/kg. Blood samples were obtained at various times after dosing. Plasma samples were analysed for unchanged test item using a suitable LC-MS/MS method. Pharmacokinetic parameters were estimated from individual plasma concentrations.
Eighteen male rats each received either a single intravenous or a single oral administration of either compound 1, 2 or 3 at a dose level of 10 mg/kg. The formulation was orally administered to each animal by gastric gavage and intravenously administered to each animal via a tail vein. The dose was administered at a dose volume of 5 mL/kg. The formulations were administered to each animal according to the details in the following table:
Blood samples (ca 0.3 mL) were removed from the femoral vein of each animal into tubes containing lithium heparin as anticoagulant.
Blood samples were collected from 3 rats at the following times after dose administration: • 3, 6, 15, 45 min and 1.5, 2.5, 4, 6, 8, 24 h post dose. Oral Administration
Blood samples were collected from 3 rats at the following times after dose administration: • 5, 15, 45 min and 1.5, 2.5, 4, 6, 8, 24 h post dose. Processing of Blood Samples
Pharmacokinetic parameters of compound 1, 2 and 3 were derived by non-compartmental analysis using WinNonLin Pro version 5.0.1 (Pharsight 2005). The following parameters were derived, where appropriate, from the individual plasma concentration versus time profiles:
• F % The absolute oral bioavailability calculated as [AUC0-t (oral)*Dose(iv)/AUC0-t (iv)*Dose (oral)]*100 based on mean values derived after oral and intravenous administration Consideration was given to the estimation of λz and corresponding t1/2 values. Three or more points are required within the terminal phase for λz and t1/2 to be estimated. The following additional variables were tabulated to aid identification of potentially unreliable estimates of t1/2 and AUC:
Pharmacokinetic parameters were reported as geometric mean except Tmax which was reported as the median. Geometric coefficient of variation was calculated as: […]
Actual sampling times were used for all calculations of pharmacokinetic parameters. Plasma concentrations that were below the limit of quantification were taken as zero for the pharmacokinetic analysis.

[1] = intravenous 10 mg/kg, male rats, individual animals, acetate, 10 mg/kg
[2] = male, Sprague Dawley, rat, plasma, iv, 10 mg/kg, single intravenous 10 mg/kg, male rats, individual animals, read-out: Sample Concentration in plasma
[3] = male, Sprague Dawley, rat, plasma, iv, 10 mg/kg, single intravenous 10 mg/kg, male rats, mean of 3, read-out: Mean Concentration in plasma

N=C(N)NN=CC=Cc1cccn1-c1ccc(Cl)cc1 [Compound 1, [1-(4-chlorophenyl)-1H-pyrrol-2-yl-allylideneamino]guanidinium acetate]
bioavailability (Sprague Dawley, rat, plasma, 10 mg/kg oral vs intravenous, male rats, from mean AUC0-t, read-out: Mean absolute oral bioavailability): 34.8%
Between-animal variability in systemic exposure, coefficient of variation (CV) of AUC0-t (intravenous 10 mg/kg, male rats): less than 20%
AUC0-∞ [1]: 3755 ng·h/mL and 3394 ng·h/mL
AUC(0-t) [1]: 3662 ng·h/mL and 3262 ng·h/mL
C0 [1]: 5834 ng/mL and 2729 ng/mL
CL [1]: 45.15 mL/min/kg and 49.85 mL/min/kg
MRT [1]: 5.76 h
Vss [1]: 15.606 L/kg and 19.225 L/kg
t1/2 [1]: 4.87 h and 5.44 h
Systemic clearance (in words) (intravenous 10 mg/kg, rats): moderate
volume of distribution compared with total body water (in words) (intravenous 10 mg/kg, rats, total body water 668 mL/kg, acetate, 10 mg/kg): exceeded the total body water; also recorded: markedly greater than that of the total body water
systemic plasma clearance (CL) as share of hepatic blood flow in rats (intravenous 10 mg/kg, hepatic blood flow 3312 mL/h/kg): approximately 82%
AUC(0-inf) (male, Sprague Dawley, rat, plasma, iv, 10 mg/kg, intravenous 10 mg/kg, male rats, Arithmetic Mean): 3780 ng·h/mL
AUC(0-t) (male, Sprague Dawley, rat, plasma, iv, 10 mg/kg, intravenous 10 mg/kg, male rats, Arithmetic Mean, read-out: AUC0-t): 3600 ng·h/mL
C0 (male, Sprague Dawley, rat, plasma, iv, 10 mg/kg, intravenous 10 mg/kg, male rats, Arithmetic Mean, read-out: C0): 4210 ng/mL
clearance (male, Sprague Dawley, rat, plasma, iv, 10 mg/kg, intravenous 10 mg/kg, male rats, Arithmetic Mean, read-out: CL (converted)): 45.3 mL/min/kg
MRT (male, Sprague Dawley, rat, plasma, iv, 10 mg/kg, intravenous 10 mg/kg, male rats, Arithmetic Mean, read-out: MRT): 6.5 h
Vd (male, Sprague Dawley, rat, plasma, iv, 10 mg/kg, intravenous 10 mg/kg, male rats, Arithmetic Mean, read-out: Vss): 17.6 L/kg
half-life (male, Sprague Dawley, rat, plasma, iv, 10 mg/kg, intravenous 10 mg/kg, male rats, Arithmetic Mean, read-out: t1/2 (converted)): 5.77 h
AUC(0-inf) (male, Sprague Dawley, rat, plasma, iv, 10 mg/kg, intravenous 10 mg/kg, male rats, Geometric mean): 3760 ng·h/mL
AUC(0-t) (male, Sprague Dawley, rat, plasma, iv, 10 mg/kg, intravenous 10 mg/kg, male rats, Geometric mean, read-out: AUC0-t): 3590 ng·h/mL
C0 (male, Sprague Dawley, rat, plasma, iv, 10 mg/kg, intravenous 10 mg/kg, male rats, Geometric mean, read-out: C0): 4020 ng/mL
clearance (male, Sprague Dawley, rat, plasma, iv, 10 mg/kg, intravenous 10 mg/kg, male rats, Geometric mean, read-out: CL (systemic plasma clearance) (converted)): 45.1 mL/min/kg
MRT (male, Sprague Dawley, rat, plasma, iv, 10 mg/kg, intravenous 10 mg/kg, male rats, Geometric mean, read-out: MRT): 6.47 h
Vd (male, Sprague Dawley, rat, plasma, iv, 10 mg/kg, intravenous 10 mg/kg, male rats, Geometric mean, read-out: Vss (mean apparent volume of distribution)): 17.5 L/kg
half-life (male, Sprague Dawley, rat, plasma, iv, 10 mg/kg, intravenous 10 mg/kg, male rats, Geometric mean, read-out: t1/2 (mean apparent terminal half-life) (converted)): 5.7 h
AUC(0-inf) (male, Sprague Dawley, rat, plasma, iv, 10 mg/kg, intravenous 10 mg/kg, male rats, Median): 3760 ng·h/mL
AUC(0-t) (male, Sprague Dawley, rat, plasma, iv, 10 mg/kg, intravenous 10 mg/kg, male rats, Median, read-out: AUC0-t): 3660 ng·h/mL
C0 (male, Sprague Dawley, rat, plasma, iv, 10 mg/kg, intravenous 10 mg/kg, male rats, Median, read-out: C0): 4070 ng/mL
clearance (male, Sprague Dawley, rat, plasma, iv, 10 mg/kg, intravenous 10 mg/kg, male rats, Median, read-out: CL (converted)): 45.1 mL/min/kg
MRT (male, Sprague Dawley, rat, plasma, iv, 10 mg/kg, intravenous 10 mg/kg, male rats, Median, read-out: MRT): 6.43 h
Vd (male, Sprague Dawley, rat, plasma, iv, 10 mg/kg, intravenous 10 mg/kg, male rats, Median, read-out: Vss): 17.9 L/kg
half-life (male, Sprague Dawley, rat, plasma, iv, 10 mg/kg, intravenous 10 mg/kg, male rats, Median, read-out: t1/2 (converted)): 5.44 h
AUC(0-inf) (male, Sprague Dawley, rat, plasma, iv, 10 mg/kg, intravenous 10 mg/kg, male rats, individual animals): 4180 ng·h/mL
AUC(0-t) (male, Sprague Dawley, rat, plasma, iv, 10 mg/kg, intravenous 10 mg/kg, male rats, individual animals, read-out: AUC0-t): 3870 ng·h/mL
clearance (male, Sprague Dawley, rat, plasma, iv, 10 mg/kg, intravenous 10 mg/kg, male rats, individual animals, read-out: CL (converted)): 40.9 mL/min/kg
MRT (male, Sprague Dawley, rat, plasma, iv, 10 mg/kg, intravenous 10 mg/kg, male rats, individual animals, read-out: MRT): 7.31 h
Vd (male, Sprague Dawley, rat, plasma, iv, 10 mg/kg, intravenous 10 mg/kg, male rats, individual animals, read-out: Vss): 17.9 L/kg
half-life (male, Sprague Dawley, rat, plasma, iv, 10 mg/kg, intravenous 10 mg/kg, male rats, individual animals, read-out: t1/2 (converted)): 7 h
concentration at 0.05 h (male, Sprague Dawley, rat, plasma, iv, 10 mg/kg, single intravenous 10 mg/kg, male rats, 0.05 h (3 min), mean of 3, read-out: Mean Concentration in plasma): 2250 ng/mL
concentration at 0.1 h [2]: 941 ng/mL
concentration at 0.1 h [3]: 1120 ng/mL
concentration at 0.25 h [2]: 589 ng/mL
concentration at 0.25 h [3]: 705 ng/mL
concentration at 0.75 h [2]: 441 ng/mL
concentration at 0.75 h [3]: 392 ng/mL
concentration at 1.5 h [2]: 347 ng/mL
concentration at 1.5 h [3]: 308 ng/mL
concentration at 2.5 h [2]: 239 ng/mL
concentration at 2.5 h [3]: 233 ng/mL
concentration at 4 h [2]: 317 ng/mL
concentration at 4 h [3]: 254 ng/mL
concentration at 6 h [2]: 140 ng/mL
concentration at 6 h [3]: 160 ng/mL
concentration at 8 h (male, Sprague Dawley, rat, plasma, iv, 10 mg/kg, single intravenous 10 mg/kg, male rats, 8 h, mean, read-out: Mean Concentration in plasma): 97 ng/mL
concentration at 24 h (male, Sprague Dawley, rat, plasma, iv, 10 mg/kg, single intravenous 10 mg/kg, male rats, 24 h, mean, read-out: Mean Concentration in plasma): 20.2 ng/mL
AUC(0-t) (male, Sprague Dawley, rat, plasma, po, 10 mg/kg, oral 10 mg/kg, male rats, Arithmetic Mean, read-out: AUC0-t): 1350 ng·h/mL
